Laboratory results: publication doi:10.1101/669069v1 (biorxiv, 2019)

Target: T1, uMAT (MAT from U. urealiticum) (Ureaplasma urealyticum, UniProt A0ABM9XK24)
T1 sequence (A0ABM9XK24 1-376): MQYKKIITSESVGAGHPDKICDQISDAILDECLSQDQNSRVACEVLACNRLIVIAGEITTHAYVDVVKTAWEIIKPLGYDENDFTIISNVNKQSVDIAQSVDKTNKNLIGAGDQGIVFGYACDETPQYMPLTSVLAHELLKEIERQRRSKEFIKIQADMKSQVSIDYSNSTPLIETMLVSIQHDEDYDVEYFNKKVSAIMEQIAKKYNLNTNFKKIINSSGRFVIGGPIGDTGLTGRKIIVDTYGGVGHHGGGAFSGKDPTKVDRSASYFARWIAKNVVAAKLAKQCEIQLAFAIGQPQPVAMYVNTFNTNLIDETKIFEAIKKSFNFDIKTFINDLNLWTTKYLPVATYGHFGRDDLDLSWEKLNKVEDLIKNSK
Assay: thermal shift, SYPRO-orange
Assay type: binding
Conditions: read-out: dTm (first transition) at 1 mM

| Compound | ΔTm at 1000 µM [°C] |
| --- | --- |
| Nc1ncnc2c1ncn2[C@@H]1O[C@H](COP(=O)(O)OP(=O)(O)NP(=O)(O)O)[C@@H](O)[C@H]1O [AMPPNP] | ~2 |
| C[S+](CC[C@H](N)C(=O)O)C[C@H]1O[C@@H](n2cnc3c(N)ncnc32)[C@H](O)[C@@H]1O (some centres unmarked) [SAM, S-adenosylmethionine] | > 10 |
